Measurements taken from US20220340685A1, “COMBINATION THERAPY WITH ENTPD2 AND CD73 ANTIBODIES” (Novartis AG, priority 2019, published 2022).

Test system: human ENTPD2 engineered B16LM3 clone B5
Assay: Human ENTPD2 engineered B16LM3 clone B5 model, combination with A2AR antagonist NIR178
Format: in vivo
Conditions: NIR178 p.o. 4 days on and 3 days off, 50 or 200 mg/kg; antibody or isotype 10 mg/kg i.v. day 1
Method: Human ENTPD2-engineered B16LM3 clone B5 was established in female C57BL/6 mice by subcutaneous injection of 0.5×10^6 cells into the right flank of each mouse. Once tumors reached approximately 50 mm^3, mice were randomized according to tumor volume into treatment groups (n=8 per group). Mice received an intravenous (i.v.) treatment of either anti-ENTPD2 mAb1 at a final dose of 10/mg/kg or a non-specific human IgG1 isotype control 10 mg/kg on day 1 of study. NIR178 was administered per os (p.o.) for 4 days on and 3 days off, starting at the beginning of study at either 50 mg/kg or 200 mg/kg. All doses were adjusted to individual mouse body weights. The study was carried out for thirteen days post treatment initiation and tumor volumes were assessed every other day to assess efficacy.

`Nc1nc(-n2cccn2)nc(-n2cccn2)c1Br` [NIR178, 5-bromo-2,6-di-(1H-pyrazol-1-yl)pyrimidine-4-amine] was tested, and the “anti-tumor efficacy” value was “No significant anti-tumor efficacy”.
